This test deals with deac2 gene product. Put plainly: Conversion of N-acetylated amino acids by permeabilized E. coli XLI blue cells with pGK81. It counts as cell-based, Comamonas acidovorans. The following applies: 25 mM, 3 hours at 30 °C. As for the experimental part:
To investigate the substrate specificity of the deac2 gene product from Comamonas acidovorans, cells of E. coli strain XLI blue permeabilized by toluene/ethanol treatment were used with and without the vector pGK81. The induction of the deac2 gene repressed by the Lac^i repressor present in this strain could be achieved by IPTG treatment. The permeabilized cells were incubated for 3 hours at 30° C. with various N-acetylated amino acids (final concentration 25 mM) and the supernatants were investigated with the aid of an amino acid analyzer. It turned out here that more than 20% of the N-acetylornithine made available was converted. For N-acetyl-phosphinothricin too, an increasing deacetylation to phosphinothricin, analogous to the concentration of N-acetylphosphinothricin employed, could be found (Table 7).
The concentrations of the N-acetylated amino acids employed and the amino acids formed by deacetylation are indicated.

With `CC(=O)N[C@@H](CCCN)C(=O)O` [N-acetyl-ornithine, N-acetylornithine], the “share of substrate made available that was converted” value is “more than 20%”.
